Results: patent publication US8202856B2 (Merck Serono SA, priority 2007, dated 2012)

Assays:
[1] = target: S1P1 receptor (Homo sapiens, UniProt P21453); experiment: 35S-GTPγS binding, membranes from CHO cells expressing S1P1; type: biochemical; settings: CHO cell membranes expressing S1P1
How it was run: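 Membranes (1–10 μg) from CHO cells expressing the receptor were incubated with compound in 20 mM HEPES pH 7.4, 10 mM MgCl2, 140 mM NaCl, 1.7 μM GDP, saponin and 0.2% BSA. [35S]GTPγS (added at 1.5 nM) was then bound for 60 min at 30 °C. Membrane-bound radioactivity, averaged over triplicates, is expressed relative to S1P activation (n=2).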

[2] = target: S1P3 receptor (Homo sapiens, UniProt Q99500); experiment: 35S-GTPγS binding, membranes from CHO cells expressing S1P3; type: biochemical; settings: CHO cell membranes expressing S1P3
Method: Receptor binding assay: Membranes were prepared from CHO cells expressing S1P1 or S1P3 for use in ligand and 35S-GTPTS binding studies. Cells were suspended in 50 mM TRIS, pH 7.4, 2 mM EDTA, 250 mM Sucrose (buffer A) and 1× Complete protease inhibitor cocktail (Roche), and disrupted at 4° C. by nitrogen decompression using a cell disruption bomb (Parr Instrument). Following centrifugation at 1000 RPM for 10 min at 4° C., the supernatant was suspended in buffer A and centrifuged again at 19000 RPM for 60 min at 4° C. The pellet was then suspended in 10 mM HEPES, pH 7.4, 1 mM EDTA, 250 mM Sucrose (Buffer B), and 1× Complete EDTA-free protease inhibitor cocktail and homogenized using a potter. Membranes were flash frozen in liquid nitrogen and stored at −80° C. [33P]sphingosine 1-phosphate (3000 Ci/mmol; American Radiolabeled Chemicals, Inc.) was added to test compounds in DMSO. Membranes and WGA SPA beads (GE Healthcare) were added to give a final volume of 100 μl in 96-well plates with assay concentrations of […] [33P]sphingosine 1-phosphate (respectively for S1P1 or S1P3), 50 mM HEPES, pH 7.5, 5 mM MgCl2, 100 mM NaCl, 0.4% fatty acid-free BSA, 1-5 μg/well of proteins and 100 μg/well of WGA SPA beads. Binding was performed for 60 min at room temperature on a shaker and bound radioactivity was measured on a PerkinElmer 1450 MicroBeta counter. Specific binding was calculated by subtracting remaining radioactivity in the presence of 1000-fold excess of unlabeled S1P. Binding data were analyzed using the GraphPad Prism program.
Measurements of ^35S-GTPγS Binding: Membranes (1 to 10 μg protein) prepared as described above, were incubated in 96-well Scintiplates (PerkinElmer) with test compounds diluted in DMSO, in 180 μl of 20 mM HEPES, pH 7.4, 10 mM MgCl2, 2 μg/well Saponin, 0.2% fatty acid free BSA (Assay buffer), 140 mM NaCl and 1.7 μM GDP. The assay was initiated with the addition of 20 μl of 1.5 nM [35S]-GTPγS (1100 Ci/mmol; GE Healthcare) in assay buffer. After 60 min incubation at 30° C. on a shaker, plates were centrifuged for 10 min at 2000 RPM. Supernatant was discarded and membrane bound radioactivity was measured on a PerkinElmer 1450 MicroBeta counter. Triplicate samples were averaged and expressed as response relative to S1P activation in absence of compound (n=2).

Sequence of S1P3 receptor (Q99500 whole entry): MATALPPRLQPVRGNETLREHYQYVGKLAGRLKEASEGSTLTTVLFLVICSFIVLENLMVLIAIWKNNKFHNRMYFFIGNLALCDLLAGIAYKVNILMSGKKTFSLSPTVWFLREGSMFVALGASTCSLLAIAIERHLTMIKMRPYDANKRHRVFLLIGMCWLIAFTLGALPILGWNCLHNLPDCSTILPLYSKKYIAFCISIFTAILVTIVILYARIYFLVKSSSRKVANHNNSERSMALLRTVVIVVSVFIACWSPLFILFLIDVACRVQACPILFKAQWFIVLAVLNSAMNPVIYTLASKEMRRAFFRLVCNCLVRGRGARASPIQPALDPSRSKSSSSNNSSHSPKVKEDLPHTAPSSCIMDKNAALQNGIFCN
Sequence of S1P1 receptor (P21453 whole entry): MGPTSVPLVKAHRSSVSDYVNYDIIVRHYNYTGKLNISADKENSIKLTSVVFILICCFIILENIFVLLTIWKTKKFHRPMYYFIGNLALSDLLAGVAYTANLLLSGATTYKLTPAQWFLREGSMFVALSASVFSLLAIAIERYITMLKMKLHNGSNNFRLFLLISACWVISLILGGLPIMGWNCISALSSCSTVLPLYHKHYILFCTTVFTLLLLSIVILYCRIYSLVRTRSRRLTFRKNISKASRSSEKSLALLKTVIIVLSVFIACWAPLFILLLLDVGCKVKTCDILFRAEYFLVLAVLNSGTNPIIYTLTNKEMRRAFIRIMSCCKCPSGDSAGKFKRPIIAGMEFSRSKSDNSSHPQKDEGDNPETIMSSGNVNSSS

SMILES: OC1CCN(Cc2ccc(-c3noc(-c4nnn(-c5ccccc5F)c4-c4ccncc4)n3)cc2)C1 (centres unmarked) [Example 142, 1-(4-{5-[1-(2-fluorophenyl)-5-pyridin-4-yl-1H-1,2,3-triazol-4-yl]-1,2,4-oxadiazol-3-yl}benzyl)pyrrolidin-3-ol]
- EC50 [1]: 13 nM
- EC50 [2]: 835 nM
